Experimental data: ChEMBL document CHEMBL5058564, “EUbOPEN Chemogenomics Library 2 (Incucyte)” (2022)

Legend:
Assay type in all cases: toxicity, cell-based
HEK-293T = assay: Incucyte cell viability with HEK293T; details: human, 10 µM, compound concentration 10 uM
Fibroblast = assay: Incucyte cell viability with human fibroblast; details: 10 µM, compound concentration 10 uM
U2OS = assay: Incucyte cell viability with U2OS; details: human, 10 µM, compound concentration 10 uM
[1] = 6 h, replicate number 1, timepoint 6 hours
[2] = 12 h, replicate number 1, timepoint 12 hours
[3] = 12 h, replicate number 2, timepoint 12 hours
[4] = 18 h, replicate number 1, timepoint 18 hours
[5] = 18 h, replicate number 2, timepoint 18 hours
[6] = 24 h, replicate number 1, timepoint 24 hours
[7] = 24 h, replicate number 2, timepoint 24 hours
[8] = 0 h, replicate number 2, timepoint 0 hours
[9] = 6 h, replicate number 2, timepoint 6 hours
[10] = 0 h, replicate number 1, timepoint 0 hours
Note: unitless GR value; below 1 slowed growth and below 0 cell loss.

SMILES	Growth Rate (HEK-293T; [1])	Growth Rate (HEK-293T; [2])	Growth Rate (HEK-293T; [3])	Growth Rate (HEK-293T; [4])	Growth Rate (HEK-293T; [5])	Growth Rate (HEK-293T; [6])	Growth Rate (HEK-293T; [7])	Growth Rate (Fibroblast; [8])	Growth Rate (Fibroblast; [9])	Growth Rate (Fibroblast; [2])	Growth Rate (Fibroblast; [3])	Growth Rate (Fibroblast; [4])	Growth Rate (Fibroblast; [5])	Growth Rate (Fibroblast; [6])	Growth Rate (Fibroblast; [7])	Growth Rate (U2OS; [10])	Growth Rate (HEK-293T; [8])	Growth Rate (HEK-293T; [9])	Growth Rate (Fibroblast; [1])	Growth Rate (U2OS; [1])	further results
CN(CCN1CCC(OC(=O)Nc2ccccc2-c2ccccc2)CC1)C(=O)c1ccc(CN2CCC(C(N)=O)CC2)cc1 [REVEFENACIN]	0.97	0.95	0.59	0.98	0.74	0.9	0.78	0.62	0.71	0.73	0.65	0.65	0.9	0.56	0.97	0.88					Growth Rate (U2OS; [8]): 0.11
N[C@@H]1c2cccnc2[C@H](OC(=O)N2CCC(n3c(=O)[nH]c4ncccc43)CC2)CC[C@H]1c1cccc(F)c1F [RIMEGEPANT]	0.99					0.89			0.05	-0.05	-0.02	0.2	0.18	0.1	-0.18	-0.42	0.87	0.67	-0.21		Growth Rate (Fibroblast; [10]): 0.86; Growth Rate (U2OS; [9]): 0.88; Growth Rate (U2OS; [5]): 0.96; Growth Rate (U2OS; [7]): 0.87
Cc1c(C(=O)NN2CCCCC2)nn(-c2ccc(Cl)cc2Cl)c1-c1ccc(Cl)cc1 [RIMONABANT]								0.97	-0.46	0.04	0	-0.03	0.53	0.03	0.42	0.12	-0.01		-0.42		Growth Rate (HEK-293T; [10]): 0.19; Growth Rate (U2OS; [8]): -1; Growth Rate (U2OS; [5]): 0.98; Growth Rate (U2OS; [6]): 0.8
C[C@@H](OC[C@@]1(c2ccccc2)CC[C@]2(CCC(=O)N2)CN1)c1cc(C(F)(F)F)cc(C(F)(F)F)c1 [ROLAPITANT]		0.83	0.57	0.88	0.81	0.89	1	0.28		0.02	0.68	0.57		0.27				0.73	-0.04	-0.32	Growth Rate (U2OS; [9]): 0.54; Growth Rate (U2OS; [3]): 0.49; Growth Rate (U2OS; [4]): 0.79; Growth Rate (U2OS; [5]): 0.63; Growth Rate (U2OS; [6]): 0.84; Growth Rate (U2OS; [7]): 0.64
CCCN(CCC)CCc1cccc2c1CC(=O)N2.Cl [ROPINIROLE HYDROCHLORIDE]	0.94							-0.1		0.31		0.67		0.64		0.4	0.1			0.57	Growth Rate (HEK-293T; [10]): 0.6; Growth Rate (Fibroblast; [10]): 0.73; Growth Rate (U2OS; [2]): 0.77; Growth Rate (U2OS; [4]): 0.76
CCCN(CCc1cccs1)[C@H]1CCc2c(O)cccc2C1 [ROTIGOTINE]						0.99		-0.39		0.84						0.77	-1		0.1	0.95	Growth Rate (HEK-293T; [10]): 0.77; Growth Rate (U2OS; [2]): 0.96
OCc1cc(C(O)CNCCCCCCOCCCCc2ccccc2)ccc1O (configuration not stated) [SALMETEROL]	0.2	0.7	0.57	0.75	0.72	0.7	0.71	0.63			0.59		0.72					0.28		0.56	Growth Rate (Fibroblast; [10]): 0.1; Growth Rate (U2OS; [2]): 0.56; Growth Rate (U2OS; [3]): 0.98; Growth Rate (U2OS; [4]): 0.81; Growth Rate (U2OS; [6]): 0.95
